This note sets out measurements from patent US20050256184A1, “1,2,4-Trioxanes and 1,2,4-trioxepanes” (priority 2004, published 2005).

pIC50: −log10 of the molar value. Like-named read-outs stand apart in the source and are kept apart here.

Usually melting point stands for the temperature of the solid-liquid transition. As a reminder, the pIC50 is −log10 of the IC50, conventionally taken in molar units.

The test system of data set [1] is K1 Plasmodium falciparum. Put plainly: In vitro antimalarial activity, 48-h [3H]-hypoxanthine incorporation sensitivity assay. It counts as cell-based. On the procedure: Antimalarial activity. The K1 strain of Plasmodium falciparum was used in this study. This strain is known to be CQ resistant Parasites were maintained in continuous culture using the method of Jensen and Trager (Trager, W; Jenson, J. B. Human Malaria Parasites in Continuous Culture. Science, 1976, 193, 673-675). Cultures were grown in flasks containing human erythrocytes (2-5%) with parasitemia in the range of 1% to 10% suspended in RPMI 1640 medium supplemented with 25 mM HEPES and 32 mM NaHCO3, and 10% human serum (complete medium). Cultures were gassed with a mixture of 3% O2, 4% CO2 and 93% N2. Antimalarial activity was assessed with an adaption of the 48-h sensitivity assay of Desjardins et al. using [^3H]-hypoxanthine incorporation as an assessment of parasite growth (Desjardins, R. E.; Canfield, C. J.; Haynes, J. D.; Chulay, J. D. Quantitative Assessment of Antimalarial activity in vitro by Semi-automated Microdilution Technique. Antimicrob. Agents Chemother., 1979, 16, 710-718). Stock drug solutions were prepared in 100% dimethylsulphoxide (DMSO) and diluted to the appropriate concentration using complete medium. Assays were performed in sterile 96-well microtitre plates, each plate contained 200 μl of parasite culture (2% parasitemia, 0.5% haematocrit) with or without 10 μl drug dilutions. Each drug was tested in triplicate and parasite growth compared to control wells (which consituted 100% parasite growth). After 24-h incubation at 37° C., 0.5 μCi hypoxanthine was added to each well. Cultures were incubated for a further 24 h before they were harvested onto filter-mats, dried for 1 h at 55° C. and counted using a Wallac 1450 Microbeta Trilux Liquid scintillation and luminescence counter. IC50 values were calculated by interpolation of the probit transformation of the log dose-response curve.

[2] abbreviates: Erythrocyte, K1 strain (chloroquine resistant) of Plasmodium falciparum in human erythrocytes, triplicate, read-out: IC50.

As for `CC1(CSc2ccccc2)COC2(CCCCC2)OO1` (stereo not drawn) [4c, 3-Methyl-3-phenylsulfanylmethyl-1,2,5-trioxa-spiro[5.5]undecane], the melting point lay in the range of 45 to 46 °C.
`CC1(CSc2ccc(Cl)cc2)COC2(CCCC2)OO1` (stereo not drawn) [4d, 8-(4-Chloro-phenylsulfanylmethyl)-8-methyl-6,7,10 trioxa-spiro[4.5]decane] displayed a melting point of 69.8 to 70 °C.
For `CC1(CSc2ccccc2)COC2(CCC2)OO1` (stereo not drawn) [4e, 7-Methyl-7-phenylsulfanylmethyl-5,6,9-trioxa-spiro[3.5]nonane], the pIC50 in data set [1] (setting [2]) was 6.50.
On the same count and under the same terms, the figure for `CC1(CSc2ccccc2)COC2(OO1)C1CC3CC(C1)CC2C3` (stereo not drawn) [4f, Adamantyl Trioxane] is 6.55.
Compound `CC1(CSc2ccccc2)COC2(CCCCCCCCCCC2)OO1` (stereo not drawn) [4j, 3-Methyl-3-phenylsulfanylmethyl-1,2,5-trioxa-spiro[5.11]heptadecane] displayed a melting point of 89 °C. In data set [1] (setting [2]), the pIC50 was 6.87.
For `CC1(CSc2ccc(Cl)cc2)COC2(CCCCCCCCCCC2)OO1` (stereo not drawn) [4k, 3-(4-Chloro-phenylsulfanylmethyl)-3-methyl-1,2,5-trioxa-spiro[5.11]heptadecane], the melting point fell in the range of 93 to 94 °C.
Still for that read-out and setting: under `CC1(CS(=O)(=O)c2ccccc2)COC2(CCCCC2)OO1` (stereo not drawn) [8c, 3-Benzenesulfonylmethyl-3-methyl-1,2,5-trioxa-spiro[5.5]undecane] stands 88 to 89 °C; under `CC1(CS(=O)(=O)c2ccccc2)COC2(CCC2)OO1` (stereo not drawn) [8e, 7-Benzenesulfonylmethyl-7-methyl-5,6,9-trioxa-spiro[3.5]nonane], 96 to 97 °C.
Compound `CC1(CS(=O)(=O)c2ccccc2)COC2(OO1)C1CC3CC(C1)CC2C3` (stereo not drawn) [8f, Adamantyl sulfone trioxane] had a melting point of 126 to 127 °C. The pIC50 in data set [1] (setting [2]) is 6.48.
For `CC1(CS(=O)(=O)c2ccccc2)COC2(CCC(C(C)(C)C)CC2)OO1` (stereo not drawn) [8g, 3-Benzenesulfonylmethyl-9-tert-butyl-3-methyl-1,2,5-trioxa-spiro[5.5]undecane], the melting point was found to be 154 °C.
On the same count and under the same terms, the figure for `CC1(CS(=O)(=O)c2ccccc2)COC2(CCC(=O)CC2)OO1` (stereo not drawn) [8h, 3-Benzenesulfonylmethyl-3-methyl-1,2,5-trioxa-spiro[5.5]undecan-9-one] is 96 °C.
On to `CC1(CS(=O)(=O)c2ccc(Cl)cc2)COC2(CCCCC2)OO1` (stereo not drawn) [8i, 3-(4-Chloro-benzenesulfonylmethyl)-3-methyl-1,2,5-trioxa-spiro[5.5]undecane], for which the melting point lay in the range of 86 to 87 °C. Besides, the pIC50 in data set [1] (setting [2]) is 7.46.
As to `CC1(CS(=O)(=O)c2ccccc2)COC2(CCCCCCCCCCC2)OO1` (stereo not drawn) [8k, 3-Benzenesulfonylmethyl-3-methyl-1,2,5-trioxa-spiro[5.11]heptadecane], the melting point is 123 to 124 °C.
For `C[C@@H]1CC[C@H]2[C@@H](C)C(=O)O[C@@H]3O[C@@]4(C)CC[C@@H]1[C@]32OO4` [Artemisinin, reference compound], the pIC50 in data set [1] (setting [2]) was 7.92.
In turn, `CCN(CC)CCCC(C)Nc1ccnc2cc(Cl)ccc12` (stereo not drawn) [Chloroquine, reference compound] showed a pIC50 in data set [1] (Plasmodium falciparum, K1, Erythrocyte) of 6.68.
